Laboratory results as given in patent publication US10220029B2, “Pharmaceutical composition comprising glutarimide derivatives and use thereof in the treatment of eosinophilic diseases” (OBSCHESTVO S ORGANICHENNOI OTVETSTVENNOSTIYU …, priority 2013, dated 2019).
Marks after values point to notes of the source that are not given here.

Assays:
Type in all cases: in vivo, guinea pig
[1] = test system: model of bronchial asthma in guinea pigs; assay: Content of cell elements in the blood in the model of bronchial asthma in guinea pigs; conditions: Table 6 Experiment No. 1, 10 times, n = 8
Description: Bronchial asthma in guinea pigs was induced by a standard method [Ricciardolo F L, Nijkamp F, De Rose V, Folkerts G. The guinea pig as an animal model for asthma// Current Drug Targets. 2008 June; 9(6):452-65]. The animals were immunized by one parenteral administration of 0.5 mL of a solution comprising 100 μg/mL ovalbumin (Sigma) and 100 mg/mL aluminium hydroxide. Intact animals received a physiological saline solution in an amount of 0.5 mL.
On days 29, 30 and 31, hyperactivity of the respiratory airways was provoked by inhalation administration of ovalbumin in ascending concentrations of 0.1, 0.3, and 0.5 mg/mL on days 1, 2, and 3 of the provocation, respectively. The inhalation lasted 5 minutes or until asphyxia symptoms became apparent (fall to one side). On day 32, the animals received a challenging dose of ovalbumin (1 mg/mL) for 5 minutes, while assessing a bronchospastic reaction.
The studied compounds were administered to the animals once daily every day for 6 or 10 days; the administration was terminated two days before the administration of the challenging dose of antigen.
The bronchoalveolar lavage (BAL) and cardiac cavity blood were derived from the animals 24 hours after administration of the challenging dose. The BAL was collected under anesthesia by lavaging the lungs with 5 mL of a physiological saline solution heated to 37° C. through the trachea, using a syringe dosing device.
The blood was analyzed with a hemocytometer to determine leykoformula.
The study comprised 3 experiments, wherein the first one was directed to the evaluation of the effect of claimed compounds 1-6 on the cell composition of the BAL, the second and the third experiments were aimed at evaluating the effect of compounds 1 and 2 on the cell composition of the BAL, the cell composition of the blood, and on the bronchospasm severity.

[2] = test system: model of leukotriene-induced eosinophilic lung inflammation in guinea pigs; assay: Content of cell elements in BAL in the model of leukotriene-induced eosinophilic lung inflammation in guinea pigs; conditions: four times, BAL 48 hours after LTD4, n = 8
Description: The model of leukotriene-induced eosinophilic lung inflammation in guinea pigs was realized by a standard method [Underwood DC1, Osborn R R, Newsholme S J, Torphy T J, Hay D W. Persistent airway eosinophilia after leukotriene (LT) D4 administration in the guinea pig: modulation by the LTD4 receptor antagonist, pranlukast, or an interleukin-5 monoclonal antibody// Am J Respir Crit Care Med. 1996 October; 154(4 Pt 1):850-7]. A solution of leukotriene D4 (LTD4, Cayman Chemical, USA) at a concentration of […] (a flow rate of 250 mL/hr) was inhaled to male guinea pigs (250-300 g) under conditions of a double-chamber plethysmograph (Emka Technologies, France) for one minute. The studied compound was administered to the animals by the intragastric route four times: 24 hours and 1 hour before and 24 hours and 45 hours after the inhalation of LTD4. The reference preparation, montelukast (0.8 mg/kg), was administered one time by the intragastric route one hour before the inhalation of LTD4. Bronchoalveolar lavage was taken 48 hours after the inhalation of LTD4, and the total lymphocyte count and leukocyte formula were determined in the lavage. The number of guinea pigs in a group was 8.

[3] = test system: model of allergic rhinitis in guinea pigs; assay: Clinical manifestations of allergic rhinitis in guinea pigs (sneezes, nose scratchings); conditions: 14 mg/kg intragastric, 3 times; 2 hours after last ovalbumin; n = 8
Description: The model of allergic rhinitis in guinea pigs was realized by a standard method [Vishnu N. Thakare, M. M. Osama, Suresh R. Naik. […] 2013 September; 17(1):18-25].
Guinea pigs (250-300 g) were immunized with 4-time (on days 0, 7, 14, and 21) intragastric administration of ovalbumin (100 μg/pig) and aluminium hydroxide (5 mg/pig), both of which were diluted and suspended in a physiological saline solution. […], a solution of ovalbumin (60 mg/mL) was administered intranasally to each nostril of the animals at a dose 20 μL. On day 35, the animals received subcutaneously an ovalbumin solution (200 μg/mL, 25 μL); the animal back was previously shaved in the site of administration. Swelling and redness at the injection site served as a support of sensibilisation. On day 42 of the study, an ovalbumin solution (60 mg/mL, 20 μL/nostril) was administered intranasally. A group of pseudoimmunized animals was formed to control the formation of exactly allergic inflammation: on days 0, 7, 14, and 21, the pigs received a solution of aluminium hydroxide (5 mg/pig), and on days 28 and 35, they received a physiological saline solution, and on day 42, a solution of ovalbumin (60 mg/mL, 20 μL/nostril).
The studied compounds (14 mg/kg) were administered 3 times by the intragastric route: 48, 24, and 1 hour before the last administration of ovalbumin. The reference preparation, dexamethasone, was administered one time by the intragastric route, 3 hours before the last intranasal administration of ovalbumin.
Clinical manifestations, such as the number of sneezes and nose scratchings, were registered for 2 hours after the last administration of ovalbumin. Nasal lavage was taken 24 hours after the last administration of ovalbumin, and in this lavage, the total lymphocyte count and leukocyte formula were determined. The number of guinea pigs in a group was 8.

O=C1CCCC(=O)N1CCc1cnc[nH]1 [Compound 1, 1-(2-(1H-imidazol-4-yl)ethyl)piperidine-2,6-dione]
Banded neutrophils in the blood ([1]; 0.045 mg/kg): 0.31 ± 0.10 10^9/L | Basophils in the blood ([1]; 0.045 mg/kg): 0 ± 0 10^9/L | Cytosis in the blood ([1]; 0.045 mg/kg): 9.03 ± 1.40& 10^9/L | Eosinophils in the blood ([1]; 0.045 mg/kg): 0.19 ± 0.04& 10^9/L | Lymphocytes in the blood ([1]; 0.045 mg/kg): 4.80 ± 0.84* 10^9/L | Monocytes in the blood ([1]; 0.045 mg/kg): 0.29 ± 0.08 10^9/L | Segmented neutrophils in the blood ([1]; 0.045 mg/kg): 2.92 ± 0.65 10^9/L | Banded neutrophils in the blood ([1]; 0.14 mg/kg): 0.19 ± 0.05& 10^9/L | Basophils in the blood ([1]; 0.14 mg/kg): 0 ± 0 10^9/L | Cytosis in the blood ([1]; 0.14 mg/kg): 9.11 ± 1.07*& 10^9/L | Eosinophils in the blood ([1]; 0.14 mg/kg): 0.09 ± 0.03& 10^9/L | Lymphocytes in the blood ([1]; 0.14 mg/kg): 5.25 ± 0.89* 10^9/L | Monocytes in the blood ([1]; 0.14 mg/kg): 0.33 ± 0.06* 10^9/L | Segmented neutrophils in the blood ([1]; 0.14 mg/kg): 2.23 ± 0.58& 10^9/L | Banded neutrophils in the blood ([1]; 14 mg/kg): 0.27 ± 0.06* 10^9/L | Basophils in the blood ([1]; 14 mg/kg): 0 ± 0 10^9/L | Cytosis in the blood ([1]; 14 mg/kg): 8.90 ± 0.25*& 10^9/L | Eosinophils in the blood ([1]; 14 mg/kg): 0.13 ± 0.04& 10^9/L | Lymphocytes in the blood ([1]; 14 mg/kg): 4.45 ± 0.25* 10^9/L | Monocytes in the blood ([1]; 14 mg/kg): 0.33 ± 0.06* 10^9/L | Segmented neutrophils in the blood ([1]; 14 mg/kg): 3.66 ± 0.22* 10^9/L | Eosinophils, content of cell elements in 1 μL of BAL ([2]; 0.14 mg/kg intragastric): 916 ± 144*& in 1 μL of BAL | Leukocytes, content of cell elements in 1 μL of BAL ([2]; 0.14 mg/kg intragastric): 2638 ± 463*& in 1 μL of BAL | Lymphocytes, content of cell elements in 1 μL of BAL ([2]; 0.14 mg/kg intragastric): 112 ± 27 in 1 μL of BAL | Macrophages, content of cell elements in 1 μL of BAL ([2]; 0.14 mg/kg intragastric): 1360 ± 323 in 1 μL of BAL | Neutrophils, content of cell elements in 1 μL of BAL ([2]; 0.14 mg/kg intragastric): 249 ± 50 in 1 μL of BAL | Eosinophils, content of cell elements in 1 μL of BAL ([2]; 1.4 mg/kg intragastric): 856 ± 288*& in 1 μL of BAL | Leukocytes, content of cell elements in 1 μL of BAL ([2]; 1.4 mg/kg intragastric): 3413 ± 1022 in 1 μL of BAL | Lymphocytes, content of cell elements in 1 μL of BAL ([2]; 1.4 mg/kg intragastric): 144 ± 89 in 1 μL of BAL | Macrophages, content of cell elements in 1 μL of BAL ([2]; 1.4 mg/kg intragastric): 2134 ± 705 in 1 μL of BAL | Neutrophils, content of cell elements in 1 μL of BAL ([2]; 1.4 mg/kg intragastric): 279 ± 97 in 1 μL of BAL | Eosinophils, content of cell elements in 1 μL of BAL ([2]; 14 mg/kg intragastric): 580 ± 124*& in 1 μL of BAL | Leukocytes, content of cell elements in 1 μL of BAL ([2]; 14 mg/kg intragastric): 2250 ± 373*& in 1 μL of BAL | Lymphocytes, content of cell elements in 1 μL of BAL ([2]; 14 mg/kg intragastric): 71 ± 28 in 1 μL of BAL | Macrophages, content of cell elements in 1 μL of BAL ([2]; 14 mg/kg intragastric): 1444 ± 258 in 1 μL of BAL | Neutrophils, content of cell elements in 1 μL of BAL ([2]; 14 mg/kg intragastric): 155 ± 36 in 1 μL of BAL | Number of nose scratchings/2 hours [3]: 13.9 ± 2.6 & | Number of sneezes/2 hours [3]: 5.9 ± 1.1 &
